Earlier results on 1 substance are cited in patent US20030175883A1, “DNA encoding a mammalian LPA receptor and uses thereof” (priority 1997, published 2003).

Data set [1] deals with LPA binding sites in membranes from 3T3 cells. The note with it: Thomson et al., 1994.
Data set [2] concerns the target LPA binding sites in membranes from rat brain. Conditions: Thomson et al., 1994.

As for 1-acyl-glycerol-3-phosphate [LPA], the Kd result in data set [1] and in data set [2] was “low nanomolar range” in each case.
